The record followed here is the supplement of paper PMC11208160.

A short description of the series: recombinant UMI read abundance after kanamycin selection (control-corrected) (log10(CPM+1)); higher = more efficient recombination; extreme values may be limits of the assay; sequences stand for … in AGTGCAGAGAAAATCGGCCAGTTTTCTCTGCCTGCAGTCCGCATGCCGTGGGACCCCTTGGGTTCTAACCTGTTGCCTAGATTTATGCAGCGGACTGCCTTTCTCCCAAAGTGATAAACCGG…AGGTTGGTTTCACT; site = the 11-nt donor. A digest of the protocol:
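Pooled Escherichia coli screen of donor and donor-binding-loop pairs for the IS621 bridge recombinase. Each pair sits with a 12-nt UMI on a plasmid carrying a promoterless kanamycin gene. The library was co-electroporated with a target plasmid encoding a fixed target and T7-inducible recombinase, then plated with IPTG (0.07 mM) plus kanamycin, or unselected, each in two replicates. Recombinant UMIs were PCR-amplified across the donor–target junction and sequenced. Counts became CPM, averaged over replicates, scaled by control-derived factors and reported as log10(CPM+1).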
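Also: IS621 bridge recombinase in Escherichia coli cells against a fixed T5 target plasmid.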

For the sequence “CCGCGCACATGGACCGGTTTTCCCGGTAATCCGTATTTGTA (site CCGCGCACTTA)”, the “recombinant UMI read abundance (log10)” value worked out at 0.0144.

For “CCGCGCACATGGACCGGTTTTCCCGGTAATCCGTATTTGTT (site CCGCGCACTAA)”, the “recombinant UMI read abundance (log10)” value was 0.0199.

As for “CCGCGTACATGGACCGGTTTTCCCGGTAATCCGTATTTGTT (site CCGCGTACTAA)”, the “recombinant UMI read abundance (log10)” value was found to be 0.0381.

As for “CCGGAAACATGGACCGGTTTTCCCGGTAATCCGTATTTGCA (site CAGGAAACTTG)”, the “recombinant UMI read abundance (log10)” value stood at 0.

On to “CCGGAAACATGGACCGGTTTTCCCGGTAATCCGTATTTGCA (site CCGGAAACTTG)”, for which the “recombinant UMI read abundance (log10)” value worked out at 0.135.

As to “CCGGAAACATGGACCGGTTTTCCCGGTAATCCGTATTTGCA (site CGGGAAACTTG)”, the “recombinant UMI read abundance (log10)” value came to 0.

Turning to “CCGGAAACATGGACCGGTTTTCCCGGTAATCCGTATTTGCA (site CTGGAAACTTG)”, the “recombinant UMI read abundance (log10)” value amounted to 0.

Regarding “CCGGAGTCATGGACCGGTTTTCCCGGTAATCCGTATTTGCC (site CAGGAGTCTGG)”, the “recombinant UMI read abundance (log10)” value came to 0.

Regarding “CCGGAGTCATGGACCGGTTTTCCCGGTAATCCGTATTTGCC (site CCGGAGTCTGG)”, the “recombinant UMI read abundance (log10)” value is 1.55.

With “CCGGAGTCATGGACCGGTTTTCCCGGTAATCCGTATTTGCC (site CGGGAGTCTGG)”, the “recombinant UMI read abundance (log10)” value was determined as 0.

“CCGGAGTCATGGACCGGTTTTCCCGGTAATCCGTATTTGCC (site CTGGAGTCTGG)”: the “recombinant UMI read abundance (log10)” value was 0.

“CCGGCAGCATGGACCGGTTTTCCCGGTAATCCGTATTTGCA (site CCGGCAGCTTG)”: the “recombinant UMI read abundance (log10)” value turned out to be 0.255.

Turning to “CCGGCAGCATGGACCGGTTTTCCCGGTAATCCGTATTTGTA (site CCGGCAGCTTA)”, the “recombinant UMI read abundance (log10)” value is 0.665.

With “CCGGTACCATGGACCGGTTTTCCCGGTAATCCGTATTTGAG (site CCGGTACCTCT)”, the “recombinant UMI read abundance (log10)” value came out at 0.

Take “CCGGTAGCATGGACCGGTTTTCCCGGTAATCCGTATTTGTG (site CCGATAGCTCA)”: the “recombinant UMI read abundance (log10)” value came out at 0.

As to “CCGGTAGCATGGACCGGTTTTCCCGGTAATCCGTATTTGTG (site CCGCTAGCTCA)”, the “recombinant UMI read abundance (log10)” value was 0.0271.

In the case of “CCGGTAGCATGGACCGGTTTTCCCGGTAATCCGTATTTGTG (site CCGGTAGCTCA)”, the “recombinant UMI read abundance (log10)” value worked out at 0.303.

As to “CCGGTAGCATGGACCGGTTTTCCCGGTAATCCGTATTTGTG (site CCGTTAGCTCA)”, the “recombinant UMI read abundance (log10)” value came to 0.0101.

As to “CCGGTCCCATGGACCGGTTTTCCCGGTAATCCGTATTTGTC (site CCGGTCCCTGA)”, the “recombinant UMI read abundance (log10)” value came to 0.

Take “CCGGTTACATGGACCGGTTTTCCCGGTAATCCGTATTTGCT (site CCGATTACTAG)”: the “recombinant UMI read abundance (log10)” value was determined as 0.782.

As to “CCGGTTACATGGACCGGTTTTCCCGGTAATCCGTATTTGCT (site CCGCTTACTAG)”, the “recombinant UMI read abundance (log10)” value came to 0.

As to “CCGGTTACATGGACCGGTTTTCCCGGTAATCCGTATTTGCT (site CCGGTTACTAG)”, the “recombinant UMI read abundance (log10)” value was determined as 0.

As for “CCGGTTACATGGACCGGTTTTCCCGGTAATCCGTATTTGCT (site CCGTTTACTAG)”, the “recombinant UMI read abundance (log10)” value was 0.

Regarding “CCGTAAGCATGGACCGGTTTTCCCGGTAATCCGTATTTGTG (site CCGTAAGCTCA)”, the “recombinant UMI read abundance (log10)” value amounted to 0.404.

For the sequence “CCGTAAGCATGGACCGGTTTTCCCGGTAATCCGTATTTGTG (site CCGTCAGCTCA)”, the “recombinant UMI read abundance (log10)” value turned out to be 0.0145.

Consider “CCGTAAGCATGGACCGGTTTTCCCGGTAATCCGTATTTGTG (site CCGTGAGCTCA)”, for which the “recombinant UMI read abundance (log10)” value came to 0.011.

In the case of “CCGTAAGCATGGACCGGTTTTCCCGGTAATCCGTATTTGTG (site CCGTTAGCTCA)”, the “recombinant UMI read abundance (log10)” value was 0.0113.

As to “CCGTAGTCATGGACCGGTTTTCCCGGTAATCCGTATTTGGG (site CCGTAGTCTCC)”, the “recombinant UMI read abundance (log10)” value was 0.0263.

With “CCGTCTACATGGACCGGTTTTCCCGGTAATCCGTATTTGCT (site CCGTATACTAG)”, the “recombinant UMI read abundance (log10)” value came to 0.

For “CCGTCTACATGGACCGGTTTTCCCGGTAATCCGTATTTGCT (site CCGTCTACTAG)”, the “recombinant UMI read abundance (log10)” value came to 0.223.

Take “CCGTCTACATGGACCGGTTTTCCCGGTAATCCGTATTTGCT (site CCGTGTACTAG)”: the “recombinant UMI read abundance (log10)” value came to 0.

“CCGTCTACATGGACCGGTTTTCCCGGTAATCCGTATTTGCT (site CCGTTTACTAG)”: the “recombinant UMI read abundance (log10)” value stood at 0.

For “CCGTTACCATGGACCGGTTTTCCCGGTAATCCGTATTTGTG (site CCGTTAACTCA)”, the “recombinant UMI read abundance (log10)” value was 0.00404.

Take “CCGTTACCATGGACCGGTTTTCCCGGTAATCCGTATTTGTG (site CCGTTACCTCA)”: the “recombinant UMI read abundance (log10)” value was 0.0136.

As for “CCGTTACCATGGACCGGTTTTCCCGGTAATCCGTATTTGTG (site CCGTTAGCTCA)”, the “recombinant UMI read abundance (log10)” value stood at 0.0116.

Take “CCGTTACCATGGACCGGTTTTCCCGGTAATCCGTATTTGTG (site CCGTTATCTCA)”: the “recombinant UMI read abundance (log10)” value stood at 0.

Take “CCGTTAGCATGGACCGGTTTTCCCGGTAATCCGTATTTGCG (site CCGTTAGCTCA)”: the “recombinant UMI read abundance (log10)” value turned out to be 0.

As for “CCGTTAGCATGGACCGGTTTTCCCGGTAATCCGTATTTGCG (site CCGTTAGCTCC)”, the “recombinant UMI read abundance (log10)” value turned out to be 0.

Take “CCGTTAGCATGGACCGGTTTTCCCGGTAATCCGTATTTGCG (site CCGTTAGCTCG)”: the “recombinant UMI read abundance (log10)” value worked out at 0.184.

“CCGTTAGCATGGACCGGTTTTCCCGGTAATCCGTATTTGCG (site CCGTTAGCTCT)”: the “recombinant UMI read abundance (log10)” value amounted to 0.0063.

Regarding “CCGTTCACATGGACCGGTTTTCCCGGTAATCCGTATTTGCT (site CCGTTAACTAG)”, the “recombinant UMI read abundance (log10)” value turned out to be 0.

With “CCGTTCACATGGACCGGTTTTCCCGGTAATCCGTATTTGCT (site CCGTTCACTAG)”, the “recombinant UMI read abundance (log10)” value was 0.726.

For “CCGTTCACATGGACCGGTTTTCCCGGTAATCCGTATTTGCT (site CCGTTGACTAG)”, the “recombinant UMI read abundance (log10)” value turned out to be 0.

Take “CCGTTCACATGGACCGGTTTTCCCGGTAATCCGTATTTGCT (site CCGTTTACTAG)”: the “recombinant UMI read abundance (log10)” value came to 0.

As to “CCGTTTACATGGACCGGTTTTCCCGGTAATCCGTATTTGCA (site CCGTTTACTAG)”, the “recombinant UMI read abundance (log10)” value was 0.

With “CCGTTTACATGGACCGGTTTTCCCGGTAATCCGTATTTGCA (site CCGTTTACTCG)”, the “recombinant UMI read abundance (log10)” value is 0.

In the case of “CCGTTTACATGGACCGGTTTTCCCGGTAATCCGTATTTGCA (site CCGTTTACTGG)”, the “recombinant UMI read abundance (log10)” value is 0.

As for “CCGTTTACATGGACCGGTTTTCCCGGTAATCCGTATTTGCA (site CCGTTTACTTG)”, the “recombinant UMI read abundance (log10)” value was found to be 0.

For “CCGTTTACATGGACCGGTTTTCCCGGTAATCCGTATTTGCG (site CCGTTTACTAG)”, the “recombinant UMI read abundance (log10)” value was 0.

Take “CCGTTTACATGGACCGGTTTTCCCGGTAATCCGTATTTGCG (site CCGTTTACTCG)”: the “recombinant UMI read abundance (log10)” value was found to be 0.0437.

With “CCGTTTACATGGACCGGTTTTCCCGGTAATCCGTATTTGCG (site CCGTTTACTGG)”, the “recombinant UMI read abundance (log10)” value stood at 0.

Regarding “CCGTTTACATGGACCGGTTTTCCCGGTAATCCGTATTTGCG (site CCGTTTACTTG)”, the “recombinant UMI read abundance (log10)” value is 0.
